Our source for the Kd values is ChEMBL document CHEMBL1136346, “Synthesis of linked carbohydrates and evaluation of their binding for 16S RNA by mass spectrometry” (Bioorg Med Chem Lett, 2003).

Each structure is given as a SMILES string.

This test in a line: Binding affinity against bacterial 16S rRNA using mass spectrometry based assay. On the set-up: species or system Escherichia coli.
By Kd is commonly meant the constant that tells how readily two partners part at equilibrium. A lower Kd goes with a tighter complex. `CN(CCCCN(C)CC(O)CO[C@H]1O[C@H](CO)[C@@H](O)[C@H](O)[C@H]1N)CC(O)CO[C@@H]1O[C@H](CO)[C@@H](O)[C@H](O)[C@H]1N` (stereo partly drawn): the Kd stood at 45 µM.

As to `CN(CCCCCCN(C)CC(O)CO[C@H]1O[C@H](CO)[C@@H](O)[C@H](O)[C@H]1N)CC(O)CO[C@@H]1O[C@H](CO)[C@@H](O)[C@H](O)[C@H]1N` (stereo partly drawn), the Kd came to 52 µM. This Kd and that of the compound before are within 1.5-fold of each other.

Consider `CN(CCN(C)CC(O)CO[C@H]1O[C@H](CO)[C@@H](O)[C@H](O)[C@H]1N)CC(O)CO[C@@H]1O[C@H](CO)[C@@H](O)[C@H](O)[C@H]1N` (stereo partly drawn), for which the dissociation constant Kd worked out at 146 µM.

Compound `N[C@@H]1C[C@H](N)[C@@H](O)[C@H](O)[C@H]1O` yielded a Kd of 130 µM. This Kd and that of the compound before are within 1.5-fold of each other.

For `CN(CCCCN(C)CC(O)CO[C@H]1[C@H](O)[C@@H](O)[C@H](N)C[C@@H]1N)CC(O)CO[C@H]1O[C@H](CN)[C@@H](O)[C@H](O)[C@H]1N` (stereo partly drawn), the Kd turned out to be 13 µM.

Compound `N[C@@H]1C[C@H](N)[C@@H](O)[C@H](OCC(O)CNCCCCNCC(O)CO[C@@H]2[C@@H](O)[C@H](N)C[C@H](N)[C@H]2O)[C@H]1O` (stereo partly drawn) yielded a Kd of 96 µM.

The compound `CN(CCCCCCN(C)CC(O)CO[C@H]1[C@H](O)[C@@H](O)[C@H](N)C[C@@H]1N)CC(O)CO[C@H]1O[C@H](CN)[C@@H](O)[C@H](O)[C@H]1N` (stereo partly drawn) gave a Kd of 32 µM.

`CN(CCCCN(C)CC(O)CO[C@H]1[C@H](O)[C@@H](O)[C@H](N)C[C@@H]1N)CC(O)CO[C@H]1O[C@H](CO)[C@@H](O)[C@H](O)[C@H]1N` (stereo partly drawn) returned a Kd of 54 µM.

Turning to `CN(CCCCCCN(C)CC(O)CO[C@H]1[C@H](O)[C@@H](O)[C@H](N)C[C@@H]1N)CC(O)CO[C@H]1O[C@H](CO)[C@@H](O)[C@H](O)[C@H]1N` (stereo partly drawn), the Kd is 39 µM.

Compound `CN(CCN(C)CC(O)CO[C@H]1O[C@H](CN)[C@@H](O)[C@H](O)[C@H]1N)CC(O)CO[C@@H]1O[C@H](CN)[C@@H](O)[C@H](O)[C@H]1N` (stereo partly drawn) displayed a Kd of 20 µM.

`CN(CCCCCCN(C)CC(O)CO[C@H]1O[C@H](CN)[C@@H](O)[C@H](O)[C@H]1N)CC(O)CO[C@@H]1O[C@H](CN)[C@@H](O)[C@H](O)[C@H]1N` (stereo partly drawn) showed a Kd of 11 µM.

`N[C@@H]1C[C@H](N)[C@@H](OC(=O)CCCC(=O)O[C@H]2[C@H](O)[C@@H](O)[C@H](N)C[C@@H]2N)[C@H](O)[C@H]1O` returned a Kd of 105 µM.

In the case of `CN(CCCCCCN(C)CC(O)CO[C@H]1[C@H](O)[C@@H](O)[C@H](N)C[C@@H]1N)CC(O)CO[C@H]1[C@H](O)[C@@H](O)[C@H](N)C[C@@H]1N` (stereo partly drawn), the Kd stood at 21 µM. Compared with the last compound, the Kd is about 5-fold lower.

With `CN(CCCCN(C)CC(O)CO[C@@H]1[C@@H](O)[C@H](N)C[C@H](N)[C@H]1O)CC(O)CO[C@H]1O[C@H](CN)[C@@H](O)[C@H](O)[C@H]1N` (stereo partly drawn), the Kd was determined as 25 µM.

`C=CCO[C@H]1O[C@H](CO)[C@@H](O)[C@H](O)[C@H]1N` had a Kd of 1590 µM.

Turning to `CN(CCN(C)CC(O)CO[C@H]1[C@H](O)[C@@H](O)[C@H](N)C[C@@H]1N)CC(O)CO[C@H]1[C@H](O)[C@@H](O)[C@H](N)C[C@@H]1N` (stereo partly drawn), binding was characterised by a dissociation constant (Kd) of 57 µM. This Kd is about 28-fold lower than that of the compound before.

As for `CN(CCCCN(C)CC(O)CO[C@H]1[C@H](O)[C@@H](O)[C@H](N)C[C@@H]1N)CC(O)CO[C@H]1[C@H](O)[C@@H](O)[C@H](N)C[C@@H]1N` (stereo partly drawn), the Kd was found to be 16 µM.

Take `CN(CCN(C)CC(O)CO[C@H]1[C@H](O)[C@@H](O)[C@H](N)C[C@@H]1N)CC(O)CO[C@H]1O[C@H](CO)[C@@H](O)[C@H](O)[C@H]1N` (stereo partly drawn): the affinity, expressed as Kd, was 335 µM.

In turn, `NC[C@H]1O[C@H](OCC(O)CN2CCN(CC(O)CO[C@H]3O[C@H](CN)[C@@H](O)[C@H](O)[C@H]3N)CC2)[C@H](N)[C@@H](O)[C@@H]1O` (stereo partly drawn) displayed a Kd of 32 µM.

As for `CN(CCCCN(C)CC(O)CO[C@H]1O[C@H](CN)[C@@H](O)[C@H](O)[C@H]1N)CC(O)CO[C@@H]1O[C@H](CN)[C@@H](O)[C@H](O)[C@H]1N` (stereo partly drawn), binding was characterised by a dissociation constant (Kd) of 16 µM.

`CN(CCCCN(C)CC(O)CO[C@@H]1[C@@H](O)[C@H](N)C[C@H](N)[C@H]1O)CC(O)CO[C@H]1O[C@H](CO)[C@@H](O)[C@H](O)[C@H]1N` (stereo partly drawn): the Kd is 29 µM.

`CN(CCN(C)CC(O)CO[C@H]1[C@H](O)[C@@H](O)[C@H](N)C[C@@H]1N)CC(O)CO[C@H]1O[C@H](CN)[C@@H](O)[C@H](O)[C@H]1N` (stereo partly drawn) registered a Kd of 47 µM.

For the compound `C=CCO[C@H]1O[C@H](CN)C(O)[C@H](O)[C@H]1N` (stereo partly drawn), the affinity, expressed as Kd, was 327 µM. Compared with the last compound, the Kd is about 7-fold higher.
